Source: PubChem BioAssay AID1963450 (Molecular Pharmacology Branch, DTP, NCI, 2024)

System: 556581-035-R-J1-PDC complex spheroid growth
Assay: Anticancer human tumor 556581-035-R-J1-PDC patient-derived ovarian carcinoma cell line growth inhibition [Asc]
Conditions: for IC50: curve of first compound; for viability, T/C: stronger effect = lower value
In short: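 Spheroid model: tumor line + HUVEC + hMSC. Single agents and combinations; top conc. at/near clinical Cmax (10 microM if undetermined), half-log dilutions. DMSO stocks at 800-fold test concentration.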

[1] = second compound 0.1 µM, first compound 0.0316 µM
[2] = second compound 0.1 µM, first compound 0.1 µM
[3] = second compound 0.1 µM, first compound 0.316 µM
[4] = second compound 0.1 µM, first compound 1 µM
[5] = second compound 0.316 µM, first compound 0.0316 µM
[6] = second compound 0.316 µM, first compound 0.1 µM
[7] = second compound 0.316 µM, first compound 0.316 µM
[8] = second compound 0.316 µM, first compound 1 µM
[9] = second compound 1 µM, first compound 0.0316 µM
[10] = second compound 1 µM, first compound 0.1 µM
[11] = second compound 1 µM, first compound 0.316 µM
[12] = second compound 1 µM, first compound 1 µM
[13] = second compound 3.16 µM, first compound 0.0316 µM
[14] = second compound 3.16 µM, first compound 0.1 µM
[15] = second compound 3.16 µM, first compound 0.316 µM
[16] = second compound 3.16 µM, first compound 1 µM
[17] = second compound 10 µM, first compound 0.0316 µM
[18] = second compound 10 µM, first compound 0.1 µM
[19] = second compound 10 µM, first compound 0.316 µM
[20] = second compound 10 µM, first compound 1 µM
[21] = second compound 0.1 µM, first compound 0.00316 µM
[22] = second compound 0.1 µM, first compound 0.01 µM
[23] = second compound 0.316 µM, first compound 0.00316 µM
[24] = second compound 0.316 µM, first compound 0.01 µM
[25] = second compound 1 µM, first compound 0.00316 µM
[26] = second compound 1 µM, first compound 0.01 µM
[27] = second compound 3.16 µM, first compound 0.00316 µM
[28] = second compound 3.16 µM, first compound 0.01 µM
[29] = second compound 10 µM, first compound 0.00316 µM
[30] = second compound 10 µM, first compound 0.01 µM
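Further: spheroids exposed to agents for 7 days before viability read.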

For C=CC(=O)N1CCN(c2nc(=O)n(-c3c(C)ccnc3C(C)C)c3nc(-c4c(O)cccc4F)c(F)cc23)C(C)C1 (stereo not given) + Cc1c(S(C)(=O)=O)c(-c2cc(F)cc(N3CCN(c4ccc(NS(=O)(=O)c5ccc(NC(CCN6CCC(C(=O)OCCCP(=O)(O)O)CC6)CSc6ccccc6)c(S(=O)(=O)C(F)(F)F)c5)cc4)CC3)c2)c(-c2ccc(Cl)cc2)n1C(C)C, the IC50 (second compound 0.1 µM) was greater than 10 µM, the IC50 (second compound 0.316 µM) was greater than 10 µM and the IC50 (second compound 1 µM) was greater than 10 µM. It also gave an IC50 (second compound 3.16 µM) greater than 10 µM, an IC50 (second compound 10 µM) greater than 10 µM and a viability, T/C [1] of 86.6%. For the same molecule, the viability, T/C [2] was 83.6%, the viability, T/C [3] was 78.8% and the viability, T/C [4] was 89.6%. The viability, T/C (second compound 0.1 µM, first compound 3.16 µM) was 80.1%, the viability, T/C (second compound 0.1 µM, first compound 10 µM) was 57.9% and the viability, T/C [5] was 90.8%. For the same molecule, the viability, T/C [6] was 98.3%, the viability, T/C [7] was 79.1% and the viability, T/C [8] was 80%. The viability, T/C (second compound 0.316 µM, first compound 3.16 µM) was 81.8%, the viability, T/C (second compound 0.316 µM, first compound 10 µM) was 64.9% and the viability, T/C [9] was 71.8%. For the same molecule, the viability, T/C [10] was 71.6%, the viability, T/C [11] was 77.6% and the viability, T/C [12] was 71.5%. For the same molecule, the viability, T/C (second compound 1 µM, first compound 3.16 µM) was 73.6%, the viability, T/C (second compound 1 µM, first compound 10 µM) was 58.9% and the viability, T/C [13] was 72.1%. It also gave a viability, T/C [14] of 78.1%, a viability, T/C [15] of 62.2% and a viability, T/C [16] of 72%. The viability, T/C (second compound 3.16 µM, first compound 3.16 µM) was 66.4%, the viability, T/C (second compound 3.16 µM, first compound 10 µM) was 56.8% and the viability, T/C [17] was 66.8%. For the same molecule, the viability, T/C [18] was 59.5%, the viability, T/C [19] was 55.9% and the viability, T/C [20] was 69.5%. The viability, T/C (second compound 10 µM, first compound 3.16 µM) was 59.6% and the viability, T/C (second compound 10 µM, first compound 10 µM) was 46.4%.

COc1c(OCCCN2CCOCC2)ccc2c3n(c(=NC(=O)c4cnc(N)nc4)nc12)CCN3 + Cc1c(S(C)(=O)=O)c(-c2cc(F)cc(N3CCN(c4ccc(NS(=O)(=O)c5ccc(NC(CCN6CCC(C(=O)OCCCP(=O)(O)O)CC6)CSc6ccccc6)c(S(=O)(=O)C(F)(F)F)c5)cc4)CC3)c2)c(-c2ccc(Cl)cc2)n1C(C)C gave an IC50 (second compound 0.1 µM) of 0.0469 µM, an IC50 (second compound 0.316 µM) of 0.0284 µM and an IC50 (second compound 1 µM) of 0.0189 µM. It also gave an IC50 (second compound 3.16 µM) of 0.0105 µM, an IC50 (second compound 10 µM) of 0.00316 µM and a viability, T/C [21] of 71%. For the same molecule, the viability, T/C [22] was 67.5%, the viability, T/C [1] was 42.1% and the viability, T/C [2] was 51.2%. For the same molecule, the viability, T/C [3] was 29.9%, the viability, T/C [4] was 10.1% and the viability, T/C [23] was 75.6%. For the same molecule, the viability, T/C [24] was 56.6%, the viability, T/C [5] was 44.4% and the viability, T/C [6] was 47.9%. It also gave a viability, T/C [7] of 16.4%, a viability, T/C [8] of 10.5% and a viability, T/C [25] of 57.9%. The viability, T/C [26] was 61.3%, the viability, T/C [9] was 41.5% and the viability, T/C [10] was 27.7%. The viability, T/C [11] was 14.2%, the viability, T/C [12] was 9.33% and the viability, T/C [27] was 59%. For the same molecule, the viability, T/C [28] was 50.5%, the viability, T/C [13] was 41.7% and the viability, T/C [14] was 29%. It also gave a viability, T/C [15] of 23.9%, a viability, T/C [16] of 9.13% and a viability, T/C [29] of 48.7%. It also gave a viability, T/C [30] of 57.3%, a viability, T/C [17] of 34% and a viability, T/C [18] of 53.7%. It also gave a viability, T/C [19] of 11.1% and a viability, T/C [20] of 19.6%.

With NC(=O)C(=Cn1cnc(-c2cc(C(F)(F)F)cc(C(F)(F)F)c2)n1)c1cncnc1 + Cc1c(S(C)(=O)=O)c(-c2cc(F)cc(N3CCN(c4ccc(NS(=O)(=O)c5ccc(NC(CCN6CCC(C(=O)OCCCP(=O)(O)O)CC6)CSc6ccccc6)c(S(=O)(=O)C(F)(F)F)c5)cc4)CC3)c2)c(-c2ccc(Cl)cc2)n1C(C)C the IC50 (second compound 0.1 µM) was greater than 0.3 µM, the IC50 (second compound 0.316 µM) was greater than 0.3 µM and the IC50 (second compound 1 µM) was greater than 0.3 µM. It also gave an IC50 (second compound 3.16 µM) of 0.148 µM, an IC50 (second compound 10 µM) of 0.0876 µM and a viability, T/C (second compound 0.1 µM, first compound 0.000949 µM) of 70.9%. It also gave a viability, T/C (second compound 0.1 µM, first compound 0.003 µM) of 72.3%, a viability, T/C (second compound 0.1 µM, first compound 0.00949 µM) of 75% and a viability, T/C (second compound 0.1 µM, first compound 0.03 µM) of 57.8%. The viability, T/C (second compound 0.1 µM, first compound 0.0949 µM) was 75.9%, the viability, T/C (second compound 0.1 µM, first compound 0.3 µM) was 66.1% and the viability, T/C (second compound 0.316 µM, first compound 0.000949 µM) was 81.2%. It also gave a viability, T/C (second compound 0.316 µM, first compound 0.003 µM) of 75.6%, a viability, T/C (second compound 0.316 µM, first compound 0.00949 µM) of 80.3% and a viability, T/C (second compound 0.316 µM, first compound 0.03 µM) of 69.5%. It also gave a viability, T/C (second compound 0.316 µM, first compound 0.0949 µM) of 66.3%, a viability, T/C (second compound 0.316 µM, first compound 0.3 µM) of 52.9% and a viability, T/C (second compound 1 µM, first compound 0.000949 µM) of 78%. For the same molecule, the viability, T/C (second compound 1 µM, first compound 0.003 µM) was 63.5%, the viability, T/C (second compound 1 µM, first compound 0.00949 µM) was 63.8% and the viability, T/C (second compound 1 µM, first compound 0.03 µM) was 68.5%. It also gave a viability, T/C (second compound 1 µM, first compound 0.0949 µM) of 52.9%, a viability, T/C (second compound 1 µM, first compound 0.3 µM) of 59.5% and a viability, T/C (second compound 3.16 µM, first compound 0.000949 µM) of 57.2%. For the same molecule, the viability, T/C (second compound 3.16 µM, first compound 0.003 µM) was 61.2%, the viability, T/C (second compound 3.16 µM, first compound 0.00949 µM) was 70.3% and the viability, T/C (second compound 3.16 µM, first compound 0.03 µM) was 63.9%. It also gave a viability, T/C (second compound 3.16 µM, first compound 0.0949 µM) of 59.6%, a viability, T/C (second compound 3.16 µM, first compound 0.3 µM) of 34% and a viability, T/C (second compound 10 µM, first compound 0.000949 µM) of 73%. The viability, T/C (second compound 10 µM, first compound 0.003 µM) was 63.9%, the viability, T/C (second compound 10 µM, first compound 0.00949 µM) was 61% and the viability, T/C (second compound 10 µM, first compound 0.03 µM) was 55%. It also gave a viability, T/C (second compound 10 µM, first compound 0.0949 µM) of 49.2% and a viability, T/C (second compound 10 µM, first compound 0.3 µM) of 45.6%.

Molecule NC1CCC(NC2CC2c2ccccc2)CC1 (stereo not given) + Cc1c(S(C)(=O)=O)c(-c2cc(F)cc(N3CCN(c4ccc(NS(=O)(=O)c5ccc(NC(CCN6CCC(C(=O)OCCCP(=O)(O)O)CC6)CSc6ccccc6)c(S(=O)(=O)C(F)(F)F)c5)cc4)CC3)c2)c(-c2ccc(Cl)cc2)n1C(C)C has an IC50 (second compound 0.1 µM) greater than 0.1 µM, an IC50 (second compound 0.316 µM) greater than 0.1 µM and an IC50 (second compound 1 µM) greater than 0.1 µM. For the same molecule, the IC50 (second compound 3.16 µM) was greater than 0.1 µM, the IC50 (second compound 10 µM) was greater than 0.1 µM and the viability, T/C (second compound 0.1 µM, first compound 0.000316 µM) was 74.9%. It also gave a viability, T/C (second compound 0.1 µM, first compound 0.001 µM) of 90.3%, a viability, T/C [21] of 64.5% and a viability, T/C [22] of 77.2%. For the same molecule, the viability, T/C [1] was 75.6%, the viability, T/C [2] was 76.9% and the viability, T/C (second compound 0.316 µM, first compound 0.000316 µM) was 74%. It also gave a viability, T/C (second compound 0.316 µM, first compound 0.001 µM) of 83.3%, a viability, T/C [23] of 67.2% and a viability, T/C [24] of 82.5%. For the same molecule, the viability, T/C [5] was 80.5%, the viability, T/C [6] was 75.5% and the viability, T/C (second compound 1 µM, first compound 0.000316 µM) was 62.9%. It also gave a viability, T/C (second compound 1 µM, first compound 0.001 µM) of 64%, a viability, T/C [25] of 67.8% and a viability, T/C [26] of 64.8%. For the same molecule, the viability, T/C [9] was 62.4%, the viability, T/C [10] was 56.4% and the viability, T/C (second compound 3.16 µM, first compound 0.000316 µM) was 58.8%. The viability, T/C (second compound 3.16 µM, first compound 0.001 µM) was 73.7%, the viability, T/C [27] was 64.5% and the viability, T/C [28] was 54.4%. It also gave a viability, T/C [13] of 71.9%, a viability, T/C [14] of 58.2% and a viability, T/C (second compound 10 µM, first compound 0.000316 µM) of 61.5%. For the same molecule, the viability, T/C (second compound 10 µM, first compound 0.001 µM) was 57.2%, the viability, T/C [29] was 56.8% and the viability, T/C [30] was 50.1%. It also gave a viability, T/C [17] of 69.5% and a viability, T/C [18] of 63.4%.
